Source: EPA's ToxRefDB 2

Columns and labels:
rat [1] = conditions: Prenatal developmental toxicity study, sprague dawley, Oral, Gavage/Intubation, dose end: 15 GD
rat [2] = conditions: Prenatal developmental toxicity study, sprague dawley, Oral, Gavage/Intubation, dose end: 15 GD; remark: listed apart in the source
rat [3] = conditions: Multigenerational reproductive toxicity study; sprague dawley; Oral; Gavage/Intubation; dose end: 2 generation; group: parental; systemic / organ weight / liver / nos
rat [4] = conditions: Sub-acute dermal toxicity, sprague dawley, Topical, dose end: 28 day, group: systemic
rat [5] = conditions: Subchronic oral toxicity in rodents, fischer, Gavage/Intubation, dose end: 13 week, group: systemic
mouse [6] = conditions: Sub-acute repeat dose toxicity, b6c3f1, Oral, Gavage/Intubation, dose end: 14 day, group: systemic
rat [7] = conditions: Sub-acute repeat dose toxicity, fischer, Oral, Gavage/Intubation, dose end: 14 day, group: systemic
rabbit = conditions: Prenatal developmental toxicity study, new zealand white, Oral, Gavage/Intubation, dose end: 19 GD
mouse [8] = conditions: Subchronic oral toxicity in rodents, b6c3f1, Gavage/Intubation, dose end: 13 week, group: systemic
[9] = group: developmental, systemic / in life observation / body weight / fetal weight
[10] = group: maternal, systemic / in life observation / body weight / body weight gain + systemic / in life observation / food consumption / food consumption
[11] = group: maternal, systemic / in life observation / body weight / body weight gain + systemic / in life observation / food consumption / food consumption + …
[12] = group: developmental, developmental / developmental malformation / bone / supernumerary + systemic / in life observation / body weight / fetal weight
[13] = group: maternal, systemic / in life observation / clinical signs / body surface staining + systemic / in life observation / clinical signs / salivation + …
[14] = systemic / in life observation / body weight / body weight gain + systemic / in life observation / clinical signs / erythema + systemic / in…
[15] = systemic / in life observation / clinical signs / erythema + systemic / pathology microscopic / skin / edema + systemic / in life …
[16] = systemic / in life observation / body weight / body weight + systemic / in life observation / clinical signs / defecation (diarrhea)
[17] = systemic / in life observation / body weight / body weight
[18] = systemic / in life observation / body weight / body weight + systemic / in life observation / clinical signs / fur (altered appearance) + …
[19] = group: developmental, developmental / developmental malformation / bone / absent + developmental / developmental malformation / bone / malpositioned + …
[20] = systemic / pathology microscopic / liver / degeneration
[21] = systemic / pathology microscopic / liver / degeneration + systemic / in life observation / body weight / body weight + systemic / in life …

`O=S(=O)([O-])[O-].OC[P+](CO)(CO)CO.OC[P+](CO)(CO)CO` [Tetrakis(hydroxymethyl)phosphonium sulfate] gave an LEL (rat [1]; [9]) of 60 mg/kg/day, an LOAEL (rat [1]; [9]) of 60 mg/kg/day and an NEL (rat [1]; [9]) of 30 mg/kg/day. It also gave an NOAEL (rat [1]; [9]) of 30 mg/kg/day, an LEL (rat [1]; [10]) of 60 mg/kg/day and an LOAEL (rat [1]; [10]) of 60 mg/kg/day. The NEL (rat [1]; [11]) was 30 mg/kg/day, the NOAEL (rat [1]; [11]) was 30 mg/kg/day and the LEL (rat [2]; [12]) was 60 mg/kg/day. For the same compound, the LOAEL (rat [2]; [12]) was 60 mg/kg/day, the NEL (rat [2]; [12]) was 30 mg/kg/day and the NOAEL (rat [2]; [12]) was 30 mg/kg/day. It also gave an LEL (rat [2]; [13]) of 30 mg/kg/day, an LOAEL (rat [2]; [13]) of 30 mg/kg/day and an NEL (rat [2]; [13]) of 15 mg/kg/day. The NOAEL (rat [2]; [13]) was 15 mg/kg/day, the LEL (rat [3]) was 15 mg/kg/day and the LOAEL (rat [3]) was greater than 15 mg/kg/day. It also gave an NEL (rat [3]) of 7.5 mg/kg/day, an NOAEL (rat [3]) of no less than 15 mg/kg/day and an LOAEL (rat [4]; [14]) greater than 500 mg/kg/day. The NOAEL (rat [4]; [14]) was no less than 500 mg/kg/day, the LEL (rat [4]; [15]) was 25 mg/kg/day and the NEL (rat [4]; [15]) was less than 25 mg/kg/day. For the same compound, the LEL (rat [5]; [16]) was 5 mg/kg/day, the NEL (rat [5]; [16]) was less than 5 mg/kg/day and the NOAEL (rat [5]; systemic / in life observation / body weight / body weight + systemic / in life observation / clinical signs / defecation (diarrhea) + …) was 20 mg/kg/day. It also gave an LOAEL (rat [5]; systemic / in life observation / body weight / body weight + systemic / pathology microscopic / liver / degeneration) of 40 mg/kg/day, an LEL (mouse [6]; [17]) of 25 mg/kg/day and an LOAEL (mouse [6]; [17]) of 50 mg/kg/day. It also gave an NEL (mouse [6]; [18]) of 12.5 mg/kg/day, an NOAEL (mouse [6]; [18]) of 25 mg/kg/day and an LOAEL (rat [7]; systemic / in life observation / body weight / body weight + systemic / in life observation / body weight / body weight gain) of 25 mg/kg/day. It also gave an NOAEL (rat [7]; systemic / in life observation / body weight / body weight + systemic / in life observation / body weight / body weight gain + systemic / in…) of 12.5 mg/kg/day, an LEL (rat [7]; systemic / in life observation / body weight / body weight gain) of 25 mg/kg/day and an NEL (rat [7]; systemic / in life observation / body weight / body weight gain + systemic / in life observation / mortality / mortality) of 12.5 mg/kg/day. For the same compound, the LEL (rabbit; [19]) was 60 mg/kg/day, the LOAEL (rabbit; [19]) was 60 mg/kg/day and the NEL (rabbit; [19]) was 18 mg/kg/day. For the same compound, the NOAEL (rabbit; [19]) was 18 mg/kg/day, the LOAEL (rabbit; [10]) was 60 mg/kg/day and the LEL (rabbit; [11]) was 60 mg/kg/day. It also gave an NEL (rabbit; [11]) of 18 mg/kg/day, an NOAEL (rabbit; [11]) of 18 mg/kg/day and an LEL (mouse [8]; [20]) of 20 mg/kg/day. For the same compound, the LOAEL (mouse [8]; [20]) was 20 mg/kg/day, the NEL (mouse [8]; [21]) was 10 mg/kg/day and the NOAEL (mouse [8]; [21]) was 10 mg/kg/day.
